From BindingDB's records for doi:10.1016/j.chembiol.2014.12.015 (University of Florida College of Medicine, 2015) come the findings set out here.

The IC50 is the point on the concentration scale where inhibition reaches its midpoint. A high value points to weaker potency in that assay.

Test in all cases: HDAC Activity Assays
In experiment [1] the target is Histone deacetylase 1/Nuclear receptor corepressor 2 [395-498] (Homo sapiens, UniProt Q13547). As to the method: (§1) The enzyme activities were initially tested in a serial dilution of each HDAC using the HDAC-Glo I/II reagents (Promega) according to the manufacturer s protocol. Luminescence was detected using the BMG POLARstar Omega microplate reader. A concentration of each HDAC within the linear response region was used for assaying inhibition of HDAC activity by UF010 and analogs. Each compound was tested in 10-point dose-response assay in triplicate.

The target of experiment [2] is Histone deacetylase 2/Nuclear receptor corepressor 2 [395-498] (Homo sapiens, UniProt Q92769). As to the method:
as §1

The target in experiment [3] is Histone deacetylase 3/Nuclear receptor corepressor 2 [395-498] (Homo sapiens, UniProt O15379). As to the method:
as §1

In a further experiment the target is T1, Histone deacetylase 6 (Homo sapiens, UniProt Q9UBN7).
T1 sequence (Q9UBN7 whole entry): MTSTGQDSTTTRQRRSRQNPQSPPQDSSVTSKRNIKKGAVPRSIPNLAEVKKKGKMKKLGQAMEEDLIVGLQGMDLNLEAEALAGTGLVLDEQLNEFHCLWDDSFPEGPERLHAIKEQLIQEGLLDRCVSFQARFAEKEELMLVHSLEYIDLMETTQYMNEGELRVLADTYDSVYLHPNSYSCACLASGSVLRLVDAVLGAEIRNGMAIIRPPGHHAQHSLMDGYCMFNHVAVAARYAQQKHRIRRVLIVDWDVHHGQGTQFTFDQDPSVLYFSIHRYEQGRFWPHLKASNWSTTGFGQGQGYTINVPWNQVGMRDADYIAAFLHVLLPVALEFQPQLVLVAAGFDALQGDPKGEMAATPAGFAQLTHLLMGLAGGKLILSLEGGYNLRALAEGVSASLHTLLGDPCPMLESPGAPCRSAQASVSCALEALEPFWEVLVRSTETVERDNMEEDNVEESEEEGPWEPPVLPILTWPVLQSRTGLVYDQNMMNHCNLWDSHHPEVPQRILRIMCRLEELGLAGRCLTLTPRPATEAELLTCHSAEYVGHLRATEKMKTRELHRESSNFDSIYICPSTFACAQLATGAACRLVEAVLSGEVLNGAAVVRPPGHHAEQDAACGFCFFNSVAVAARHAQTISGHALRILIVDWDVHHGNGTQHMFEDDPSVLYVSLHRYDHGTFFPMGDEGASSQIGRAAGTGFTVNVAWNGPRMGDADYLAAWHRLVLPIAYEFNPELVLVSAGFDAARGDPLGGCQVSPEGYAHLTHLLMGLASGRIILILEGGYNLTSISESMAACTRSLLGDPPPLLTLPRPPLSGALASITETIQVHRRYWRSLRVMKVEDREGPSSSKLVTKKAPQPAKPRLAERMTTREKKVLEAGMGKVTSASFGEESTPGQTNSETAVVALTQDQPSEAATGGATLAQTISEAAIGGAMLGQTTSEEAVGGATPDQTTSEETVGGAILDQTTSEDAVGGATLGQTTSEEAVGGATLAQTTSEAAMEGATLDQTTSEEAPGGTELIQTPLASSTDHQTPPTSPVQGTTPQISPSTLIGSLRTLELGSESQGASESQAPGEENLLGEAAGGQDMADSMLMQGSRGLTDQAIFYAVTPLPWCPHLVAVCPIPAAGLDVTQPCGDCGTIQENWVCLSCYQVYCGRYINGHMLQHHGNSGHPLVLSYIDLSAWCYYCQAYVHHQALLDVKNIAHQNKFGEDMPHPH
As to the method:
as §1

For a further experiment, the target named is T2, Histone deacetylase 8 (Homo sapiens, UniProt Q9BY41).
T2 sequence (Q9BY41 whole entry): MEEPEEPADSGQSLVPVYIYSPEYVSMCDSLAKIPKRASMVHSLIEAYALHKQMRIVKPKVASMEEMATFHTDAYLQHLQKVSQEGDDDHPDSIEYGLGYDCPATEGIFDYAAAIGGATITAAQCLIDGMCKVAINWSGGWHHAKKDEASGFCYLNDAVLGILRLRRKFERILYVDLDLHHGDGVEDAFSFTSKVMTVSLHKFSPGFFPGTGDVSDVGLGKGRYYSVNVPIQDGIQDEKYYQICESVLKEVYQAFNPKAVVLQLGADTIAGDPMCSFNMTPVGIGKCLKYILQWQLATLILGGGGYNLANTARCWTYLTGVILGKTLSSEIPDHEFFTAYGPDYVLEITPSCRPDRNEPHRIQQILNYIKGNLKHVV
As to the method:
as §1

Sequence of Histone deacetylase 1/Nuclear receptor corepressor 2 [395-498] (Q13547 whole entry): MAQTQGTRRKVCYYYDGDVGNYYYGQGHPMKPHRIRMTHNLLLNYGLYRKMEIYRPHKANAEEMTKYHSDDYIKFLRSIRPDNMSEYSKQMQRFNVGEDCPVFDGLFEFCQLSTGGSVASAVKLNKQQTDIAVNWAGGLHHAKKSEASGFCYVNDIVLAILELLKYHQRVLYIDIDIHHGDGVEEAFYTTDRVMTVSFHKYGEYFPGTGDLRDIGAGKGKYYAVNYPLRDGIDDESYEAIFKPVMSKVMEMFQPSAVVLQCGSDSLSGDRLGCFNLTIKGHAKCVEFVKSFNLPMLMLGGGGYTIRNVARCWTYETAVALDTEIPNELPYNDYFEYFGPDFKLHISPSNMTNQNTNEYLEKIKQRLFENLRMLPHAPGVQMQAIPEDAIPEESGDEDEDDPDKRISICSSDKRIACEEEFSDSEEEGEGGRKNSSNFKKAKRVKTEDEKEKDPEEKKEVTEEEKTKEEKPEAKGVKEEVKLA
Sequence of Histone deacetylase 1/Nuclear receptor corepressor 2 [395-498] (Q9Y618 395-498, further chain): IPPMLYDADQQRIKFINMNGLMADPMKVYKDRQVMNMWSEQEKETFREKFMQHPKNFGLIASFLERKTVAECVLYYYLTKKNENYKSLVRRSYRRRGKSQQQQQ
Sequence of Histone deacetylase 3/Nuclear receptor corepressor 2 [395-498] (O15379 whole entry): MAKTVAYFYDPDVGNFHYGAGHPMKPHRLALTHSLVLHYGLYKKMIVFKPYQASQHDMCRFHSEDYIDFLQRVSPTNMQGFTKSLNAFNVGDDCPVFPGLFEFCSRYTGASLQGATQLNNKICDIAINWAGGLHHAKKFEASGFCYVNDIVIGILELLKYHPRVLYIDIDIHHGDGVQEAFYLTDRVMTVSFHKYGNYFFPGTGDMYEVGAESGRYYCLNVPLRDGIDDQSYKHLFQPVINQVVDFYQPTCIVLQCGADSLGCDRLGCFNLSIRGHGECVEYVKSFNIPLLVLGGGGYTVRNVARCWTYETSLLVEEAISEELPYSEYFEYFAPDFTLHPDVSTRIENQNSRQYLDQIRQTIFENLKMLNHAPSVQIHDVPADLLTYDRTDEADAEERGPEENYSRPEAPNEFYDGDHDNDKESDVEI
Sequence of Histone deacetylase 3/Nuclear receptor corepressor 2 [395-498] (Q9Y618 395-498, further chain): as the sequence (Q9Y618 395-498, further chain) above
Sequence of Histone deacetylase 2/Nuclear receptor corepressor 2 [395-498] (Q92769 whole entry): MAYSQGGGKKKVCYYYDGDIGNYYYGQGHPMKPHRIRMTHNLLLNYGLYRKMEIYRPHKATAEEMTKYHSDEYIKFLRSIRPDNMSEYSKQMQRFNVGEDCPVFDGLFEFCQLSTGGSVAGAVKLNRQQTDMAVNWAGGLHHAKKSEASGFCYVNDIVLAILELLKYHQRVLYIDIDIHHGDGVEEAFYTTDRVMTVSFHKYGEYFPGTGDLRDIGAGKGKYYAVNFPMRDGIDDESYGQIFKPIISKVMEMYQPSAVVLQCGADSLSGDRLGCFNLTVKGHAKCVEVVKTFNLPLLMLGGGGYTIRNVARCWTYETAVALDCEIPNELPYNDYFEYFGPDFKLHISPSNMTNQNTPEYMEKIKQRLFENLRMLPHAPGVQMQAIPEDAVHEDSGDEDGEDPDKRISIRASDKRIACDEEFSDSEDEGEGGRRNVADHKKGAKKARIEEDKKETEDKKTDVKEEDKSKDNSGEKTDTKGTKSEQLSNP
Sequence of Histone deacetylase 2/Nuclear receptor corepressor 2 [395-498] (Q9Y618 395-498, further chain): as the sequence (Q9Y618 395-498, further chain) above

Consider `CCCCNNC(=O)c1ccc(F)cc1` [SR-3203], for which the concentration for half-maximal inhibition (IC50) in experiment [1] was 13.2 µM; in experiment [2] it was 15.1 µM; in experiment [3], 1.78 µM.

As to `CCCCNNC(=O)c1ccc(OC(F)(F)F)cc1` [SR-3204], the half-inhibitory concentration (IC50) in experiment [1] turned out to be 8.86 µM; in experiment [2], 9.09 µM; in experiment [3], 1.35 µM.

In the case of `CCCCNNC(=O)c1ccc(OC)cc1` [SR-3206], the IC50 in experiment [1] stood at 1.91 µM; in experiment [2], 2.52 µM; in experiment [3], 0.43 µM.

As for `CCCCNNC(=O)c1ccc(N(C)C)cc1` [SR-3208], the IC50 was found to be 0.23 µM in experiment [1]; 0.88 µM in experiment [2]; 9.57 µM against Histone deacetylase 6; 0.72 µM on Histone deacetylase 8; 0.12 µM in experiment [3].

In the case of `CCCCNNC(=O)c1ccc(Cl)cc1` [SR-3210], the IC50 was 3 µM in experiment [1], 3.8 µM in experiment [2] and 2.5 µM in experiment [3].

For the compound `O=C(NNCCC1CCCC1)c1ccc(Br)cc1` [SR-3297], the IC50 was found to be 7.4 µM in experiment [1], 7.65 µM in experiment [2] and 1.08 µM in experiment [3].

Regarding `CN(C)c1ccc(C(=O)NNCC2CCCC2)cc1` [SR-3298], the IC50 was found to be 1.76 µM in experiment [1], 3.25 µM in experiment [2] and 1.67 µM in experiment [3].

In the case of `CCCCNNC(=O)c1ccc(C(C)(C)C)cc1` [SR-3302], the 50% inhibitory concentration (IC50) in experiment [1] amounted to 0.19 µM; in experiment [2] it was 1.04 µM; on Histone deacetylase 6, 6.83 µM; on Histone deacetylase 8, 0.49 µM; in experiment [3], 0.07 µM.

Consider `O=C(NNCC1CCCC1)c1ccc(Br)cc1` [SR-3364], for which the IC50 in experiment [1] was found to be 8.81 µM; in experiment [2], 28.4 µM; in experiment [3], 6.98 µM.

Consider `O=C(NNCCCC1CCCC1)c1ccc(Br)cc1` [SR-3365], for which the half-maximal inhibitory concentration (IC50) in experiment [1], in experiment [2] and in experiment [3] was over 50 µM each time.

In the case of `CCCCCCNNC(=O)c1ccc(Br)cc1` [SR-3367], the concentration for half-maximal inhibition (IC50) was 10.3 µM in experiment [1], 16.1 µM in experiment [2], 39.1 µM on Histone deacetylase 6 and 20 µM in experiment [3].

For the compound `CCCCCNNC(=O)c1ccc(Br)cc1` [SR-3970], the concentration for half-maximal inhibition (IC50) in experiment [1] was 1.87 µM; in experiment [2] it was 1.92 µM; against Histone deacetylase 6 it was 5.73 µM; against Histone deacetylase 8, 4.87 µM; in experiment [3], 0.92 µM.

Regarding `CCCCNNC(=O)c1ccc(Br)cc1` [UF010], the IC50 against Histone deacetylase 6 turned out to be 9.09 µM; on Histone deacetylase 8, 2.83 µM.
